Reference: ChEMBL document CHEMBL1201862, “PubChem BioAssay data set” (2004)
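Values below derive from 48-hour exposures of cells grown in 96-well plates, with endpoints linearly interpolated between the two concentrations bracketing the appropriate inhibition level. The concentration for 50% growth inhibition is given as GI50.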 Calls of active or inactive are those of the source. Cut-off read from the data, not from the text of the source: active = GI50 up to about 1.1 µM and inactive = higher.

Legend:
Experiment in all cases: DTP human tumour cell line panel, 48 h
[1] = tested on: ACHN
[2] = tested on: SK-OV-3
[3] = tested on: DLD-1
[4] = tested on: XF498
[5] = tested on: 786-0
[6] = tested on: HL-60
[7] = tested on: EKVX
[8] = tested on: NCI-H522
[9] = tested on: SNB-78
[10] = tested on: HCC 2998
[11] = tested on: SN12C
[12] = tested on: UACC-62
[13] = tested on: SK-MEL-2
[14] = tested on: DMS-273
[15] = tested on: RPMI-8226
[16] = tested on: KM12
[17] = tested on: Malme-3M
[18] = tested on: HT-29
[19] = tested on: RXF 631
[20] = tested on: HOP-92
[21] = tested on: COLO 205
[22] = tested on: OVCAR-5
[23] = tested on: OVCAR-8
[24] = tested on: UO-31
[25] = tested on: SF-268
[26] = tested on: HCT-15
[27] = tested on: MOLT-4
[28] = tested on: A549
[29] = tested on: SF-295
[30] = tested on: HCT-116
[31] = tested on: TK-10
[32] = tested on: RXF 393
[33] = tested on: UACC-257
[34] = tested on: M19-MEL
[35] = tested on: M14
[36] = tested on: A498
[37] = tested on: HOP-62
[38] = tested on: LOX IMVI
[39] = tested on: K562
[40] = tested on: NCI-H226
[41] = tested on: U-251
[42] = tested on: SNB-19
[43] = tested on: SW-620
[44] = tested on: SK-MEL-28
[45] = tested on: CAKI-1
[46] = tested on: SK-MEL-5
[47] = tested on: IGROV-1
[48] = tested on: SF-539
[49] = tested on: KM-20L2
[50] = tested on: NCI-H23
[51] = tested on: SNB-75
[52] = tested on: OVCAR-3
[53] = tested on: CCRF-CEM
[54] = tested on: DMS-114
[55] = tested on: NCI-H460
[56] = tested on: BT-549
[57] = tested on: PC-3
[58] = tested on: OVCAR-4
[59] = tested on: LXFL 529
[60] = tested on: MDA-MB-231
[61] = tested on: MDA-MB-435
[62] = tested on: T47D
[63] = tested on: Hs-578T
[64] = tested on: DU-145
[65] = tested on: MCF7
[66] = tested on: NCI/ADR-RES
[67] = tested on: SR
[68] = tested on: MDA-N
[69] = tested on: HOP-18

Cc1ccccc1C(C#N)C(=O)C(=O)Nc1cccc(Cl)c1 (configuration not stated)
GI50 [1]: > 100 µM (inactive) | GI50 [2]: > 100 µM (inactive) | GI50 [3]: > 100 µM (inactive) | GI50 [4]: 71.4 µM (inactive) | GI50 [5]: 37.8 µM (inactive) | GI50 [6]: 91.4 µM (inactive) | GI50 [7]: > 100 µM (inactive) | GI50 [8]: 58.5 µM (inactive) | GI50 [9]: > 100 µM (inactive) | GI50 [10]: > 100 µM (inactive) | GI50 [11]: > 100 µM (inactive) | GI50 [12]: > 100 µM (inactive) | GI50 [13]: > 100 µM (inactive) | GI50 [14]: > 100 µM (inactive) | GI50 [15]: 27.2 µM (inactive) | GI50 [16]: > 100 µM (inactive) | GI50 [17]: > 100 µM (inactive) | GI50 [18]: > 100 µM (inactive) | GI50 [19]: > 100 µM (inactive) | GI50 [20]: > 100 µM (inactive) | GI50 [21]: 58.3 µM (inactive) | GI50 [22]: > 100 µM (inactive) | GI50 [23]: > 100 µM (inactive) | GI50 [24]: > 100 µM (inactive) | GI50 [25]: > 100 µM (inactive) | GI50 [26]: > 100 µM | GI50 [27]: > 100 µM (inactive) | GI50 [28]: > 100 µM (inactive) | GI50 [29]: > 100 µM (inactive) | GI50 [30]: > 100 µM (inactive) | GI50 [31]: > 100 µM (inactive) | GI50 [32]: > 100 µM (inactive) | GI50 [33]: > 100 µM (inactive) | GI50 [34]: 26.4 µM (inactive) | GI50 [35]: > 100 µM (inactive) | GI50 [36]: > 100 µM (inactive) | GI50 [37]: > 100 µM (inactive) | GI50 [38]: 19.1 µM (inactive) | GI50 [39]: 32.2 µM (inactive) | GI50 [40]: > 100 µM (inactive) | GI50 [41]: > 100 µM (inactive) | GI50 [42]: > 100 µM (inactive) | GI50 [43]: 15.7 µM (inactive) | GI50 [44]: > 100 µM (inactive) | GI50 [45]: > 100 µM (inactive) | GI50 [46]: > 100 µM (inactive) | GI50 [47]: > 100 µM (inactive) | GI50 [48]: > 100 µM (inactive) | GI50 [49]: > 100 µM (inactive) | GI50 [50]: > 100 µM (inactive) | GI50 [51]: > 100 µM (inactive) | GI50 [52]: > 100 µM (inactive) | GI50 [53]: 39.4 µM (inactive) | GI50 [54]: 54.6 µM (inactive) | GI50 [55]: 61.5 µM (inactive)

C[n+]1c2ccccc2c(CNC(CCC(N)=O)C(=O)O)c2ccccc21 (configuration not stated)
GI50 [1]: 1.76 µM (inactive) | GI50 [2]: 6.21 µM (inactive) | GI50 [3]: 0.475 µM (active) | GI50 [4]: 2 µM (inactive) | GI50 [5]: 1.01 µM (active) | GI50 [6]: 0.239 µM (active) | GI50 [7]: 6.75 µM (inactive) | GI50 [56]: 4.59 µM (inactive) | GI50 [8]: 1.57 µM (inactive) | GI50 [9]: 6.5 µM (inactive) | GI50 [10]: 4.24 µM (inactive) | GI50 [57]: 5.61 µM (inactive) | GI50 [58]: 3.46 µM (inactive) | GI50 [11]: 2.64 µM (inactive) | GI50 [12]: 2.23 µM (inactive) | GI50 [13]: 4.76 µM (inactive) | GI50 [14]: 1.21 µM (inactive) | GI50 [15]: 0.39 µM (active) | GI50 [59]: 0.817 µM (active) | GI50 [16]: 2.46 µM (inactive) | GI50 [60]: 5.36 µM (inactive) | GI50 [17]: 4.44 µM (inactive) | GI50 [61]: 2.55 µM (inactive) | GI50 [18]: 1.22 µM (inactive) | GI50 [20]: 0.948 µM (active) | GI50 [21]: 0.525 µM (active) | GI50 [62]: 0.0221 µM (active) | GI50 [22]: 9.1 µM (inactive) | GI50 [23]: 3.39 µM (inactive) | GI50 [24]: 2.67 µM (inactive) | GI50 [25]: 1.77 µM (inactive) | GI50 [26]: 1.24 µM | GI50 [63]: 5.68 µM (inactive) | GI50 [64]: 5.52 µM (inactive) | GI50 [27]: 0.998 µM (active) | GI50 [28]: 4.38 µM (inactive) | GI50 [65]: 1.02 µM (active) | GI50 [29]: 6.71 µM (inactive) | GI50 [30]: 0.302 µM (active) | GI50 [31]: 1.53 µM (inactive) | GI50 [32]: 1.99 µM (inactive) | GI50 [33]: 4.31 µM (inactive) | GI50 [34]: 2.18 µM (inactive) | GI50 [35]: 3.41 µM (inactive) | GI50 [36]: 0.6 µM (active) | GI50 [37]: 4.94 µM (inactive) | GI50 [38]: 1.94 µM (inactive) | GI50 [39]: 0.34 µM (active) | GI50 [66]: 4.56 µM (inactive) | GI50 [40]: 8.3 µM (inactive) | GI50 [41]: 3.31 µM (inactive) | GI50 [42]: 6.18 µM (inactive) | GI50 [43]: 0.506 µM (active) | GI50 [44]: 5.96 µM (inactive) | GI50 [45]: 2.36 µM (inactive) | GI50 [46]: 1.99 µM (inactive) | GI50 [47]: 4.15 µM (inactive) | GI50 [48]: 2.34 µM (inactive) | GI50 [49]: 1.1 µM (active) | GI50 [50]: 3.9 µM (inactive) | GI50 [51]: 5.22 µM (inactive) | GI50 [52]: 2.31 µM (inactive) | GI50 [53]: 0.366 µM (active) | GI50 [67]: 1.07 µM (active) | GI50 [68]: 2.87 µM (inactive) | GI50 [69]: 2.09 µM (inactive) | GI50 [54]: 0.577 µM (active) | GI50 [55]: 3.72 µM (inactive)

CN(c1n[n+]2c(-c3ccccc3)csc2s1)c1n[n+]2c(-c3ccccc3)csc2s1
GI50 [1]: > 100 µM (inactive) | GI50 [2]: > 100 µM (inactive) | GI50 [3]: > 100 µM (inactive) | GI50 [4]: > 100 µM (inactive) | GI50 [5]: > 100 µM (inactive) | GI50 [6]: 47.6 µM (inactive) | GI50 [7]: > 100 µM (inactive) | GI50 [8]: 33.7 µM (inactive) | GI50 [9]: > 100 µM (inactive) | GI50 [10]: > 100 µM (inactive) | GI50 [58]: > 100 µM (inactive) | GI50 [11]: > 100 µM (inactive) | GI50 [12]: > 100 µM (inactive) | GI50 [13]: > 100 µM (inactive) | GI50 [14]: > 100 µM (inactive) | GI50 [15]: > 100 µM (inactive) | GI50 [59]: 87.3 µM (inactive) | GI50 [16]: > 100 µM (inactive) | GI50 [17]: 26.3 µM (inactive) | GI50 [18]: > 100 µM (inactive) | GI50 [20]: > 100 µM (inactive) | GI50 [21]: 46.7 µM (inactive) | GI50 [22]: > 100 µM (inactive) | GI50 [23]: > 100 µM (inactive) | GI50 [24]: > 100 µM (inactive) | GI50 [25]: > 100 µM (inactive) | GI50 [26]: 0.144 µM | GI50 [27]: > 100 µM (inactive) | GI50 [28]: > 100 µM (inactive) | GI50 [29]: > 100 µM (inactive) | GI50 [30]: > 100 µM (inactive) | GI50 [31]: > 100 µM (inactive) | GI50 [32]: > 100 µM (inactive) | GI50 [33]: > 100 µM (inactive) | GI50 [34]: > 100 µM (inactive) | GI50 [35]: > 100 µM (inactive) | GI50 [38]: > 100 µM (inactive) | GI50 [39]: 42.8 µM (inactive) | GI50 [40]: > 100 µM (inactive) | GI50 [42]: > 100 µM (inactive) | GI50 [43]: > 100 µM (inactive) | GI50 [44]: > 100 µM (inactive) | GI50 [46]: 89.5 µM (inactive) | GI50 [47]: > 100 µM (inactive) | GI50 [48]: > 100 µM (inactive) | GI50 [49]: > 100 µM (inactive) | GI50 [50]: > 100 µM (inactive) | GI50 [51]: > 100 µM (inactive) | GI50 [52]: > 100 µM (inactive) | GI50 [53]: 68.9 µM (inactive) | GI50 [67]: 61.5 µM (inactive) | GI50 [69]: > 100 µM (inactive) | GI50 [54]: 59.6 µM (inactive) | GI50 [55]: > 100 µM (inactive)
